Results as given in patent US6989384B2, “Antipicornaviral compounds and compositions, their pharmaceutical uses, and materials for their synthesis” (Agouron Pharmaceuticals, Inc., priority 2000, dated 2006).

Key:
HRV-10 = experiment: Antirhinoviral H1-HeLa cell culture assay (cell protection, XTT), HRV-10; format: cell-based; details: Human rhinovirus sp., HRV10, 48 h, HRV-10, H1-HeLa cells, two days
Method: (§1) In this cell protection assay, the ability of compounds to protect cells against HRV infection was measured by the XTT dye reduction method, which is described in Weislow et al., J. Natl. Cancer Inst. 1989, vol. 81, 577–586.
(§2) H1-HeLa cells were infected with HRV-14 at a multiplicity of infection (m.o.i.) of 0.13 (virus particles/cell) or mock-infected with medium only. Infected or mock-infected cells were resuspended at 8×10^5 cells per mL, and incubated with appropriate concentrations of the compounds to be tested. Two days later, XTT/PMS was added to test plates and the amount of formazan produced was quantified spectrophotometrically at 450/650 nm. The EC50 value was calculated as the concentration of compound that increased the percentage of formazan production in compound-treated, virus-infected cells to 50% of that produced by compound-free, mock-infected cells. The 50% cytotoxic dose (CC50) was calculated as the concentration of compound that decreased the percentage of formazan produced in compound-treated, mock-infected cells to 50% of that produced by compound-free, mock-infected cells.
(§3) All strains of human rhinovirus (HRV) for use in this assay were purchased from American Type Culture Collection (ATCC), except for HRV serotype-14 (produced from the infectious cDNA clone constructed by Dr. Robert Rueckert, Institute for Molecular Virology, University of Wisconsin, Madison, Wis.). HRV stocks were propagated and viral assays were performed in H1-HeLa cells (ATCC). Cells were grown in minimal essential medium with 10% fetal bovine serum, available from Life Technologies (Gaithersburg, Md.).
(§4) The compounds were tested against control compounds WIN 51711, WIN 52084, and WIN 54954 (obtained from Sterling-Winthrop Pharmaceuticals), Pirodavir (obtained from Janssen Pharmaceuticals), and Pleconaril (prepared according to the method described in Diana et al., J. Med. Chem 1995, vol. 38, 1355). Antiviral data obtained for the test compounds are shown in the Table, where all data are for HRV serotype-14 unless otherwise noted in parentheses.

[1] = molecular target: T1, rhinovirus 3C protease from HRV serotype-14 (Human rhinovirus 14, UniProt P03303); experiment: Inhibition of rhinovirus 3C protease activity (FRET assay), HRV-14; format: biochemical; details: read-out: Protease Inhibition kobs/I
T1 construct: Recombinant rhinovirus 3C proteases; made in house
How it was run: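 Recombinant 3C protease (50–100 nM) was assayed in 50 mM tris pH 7.6, 1 mM EDTA, 2% DMSO, with about 1 μM DABCYL-GRAVFQGPVG-EDANS FRET substrate. Cleavage was followed as the rise in fluorescence. kobs/[I] was derived from progress curves of enzyme-initiated reactions.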

[2] = molecular target: T2, rhinovirus 3C protease (HRV-89) (Human rhinovirus A serotype 89, UniProt P07210); experiment: Inhibition of rhinovirus 3C protease activity (FRET assay), HRV-89; format: biochemical, human rhinovirus 89; details: HRV-89 3C protease; progress curves, enzyme start; read-out: Protease Inhibition kobs/I
T2 construct: Recombinant rhinovirus 3C proteases

[3] = molecular target: T3, rhinovirus 3C protease (HRV-16) (Human rhinovirus 16, UniProt Q82122); experiment: Inhibition of rhinovirus 3C protease activity (FRET assay), HRV-16; format: biochemical; details: HRV-16 3C protease; progress curves, enzyme start; read-out: Protease Inhibition kobs/I
T3 construct: Recombinant rhinovirus 3C proteases; made in house
Method: Stock solutions (50 mM, in DMSO) of various compounds were prepared; dilutions were in the same solvent. Recombinant rhinovirus 3C proteases (see Birch et al., “Purification of recombinant human rhinovirus 14 3C protease expressed in Escherichia coli,” Protein Expr. Pur. 1995, 6(5), 609–618) from serotypes 14, 16, and 2 were prepared by the following standard chromatographic procedures: (1) ion exchange using Q Sepharose Fast Flow from Pharmacia; (2) affinity chromatography using Affi-Gel Blue from Biorad; and (3) sizing using Sephadex G-100 from Pharmacia. Each assay sample contained 2% DMSO, 50 mM tris pH 7.6, 1 mM EDTA, a test compound at the indicated concentration, approximately 1 μM substrate, and 50–100 nM protease. The kobs/I values were obtained from reactions initiated by addition of enzyme rather than substrate. RVP activity was measured in the fluorescence resonance energy transfer assay. The substrate was (N-terminal) DABCYL-(Gly-Arg-Ala-Val-Phe-Gln-Gly-Pro-Val-Gly)-EDANS. In the uncleaved peptide, the EDANS fluorescence was quenched by the proximal DABCYL group. When the peptide was cleaved, the quenching was relieved, and activity was measured as an increase in fluorescence signal. […] The data in the column designated kobs/[I] were measured from progress curves in enzyme start experiments.

HRV-2 = experiment: Antirhinoviral H1-HeLa cell culture assay (cell protection, XTT), HRV-2; format: cell-based, human rhinovirus; details: Rhinovirus A, HRV2, 48 h, HRV-2, H1-HeLa cells, two days
Method: as §1, §2, §3, §4

HRV-14 = experiment: Antirhinoviral H1-HeLa cell culture assay (cell protection, XTT), HRV-14; format: cell-based, human rhinovirus; details: Rhinovirus B, HRV14, H1-HeLa, 48 h, read-out: Cell Protection EC50
Method: as §1, §2, §3, §4

[4] = molecular target: T4, rhinovirus 3C protease (HRV-2) (Human rhinovirus 2, UniProt P04936); experiment: Inhibition of rhinovirus 3C protease activity (FRET assay), HRV-2; format: biochemical; details: read-out: Protease Inhibition kobs/I
T4 construct: Recombinant rhinovirus 3C proteases; made in house
Method: Stock solutions (50 mM, in DMSO) of various compounds were prepared; dilutions were in the same solvent. Recombinant rhinovirus 3C proteases (see Birch et al., “Purification of recombinant human rhinovirus 14 3C protease expressed in Escherichia coli,” Protein Expr. Pur. 1995, 6(5), 609–618) from serotypes 14, 16, and 2 were prepared by the following standard chromatographic procedures: (1) ion exchange using Q Sepharose Fast Flow from Pharmacia; (2) affinity chromatography using Affi-Gel Blue from Biorad; and (3) sizing using Sephadex G-100 from Pharmacia. Each assay sample contained 2% DMSO, 50 mM tris pH 7.6, 1 mM EDTA, a test compound at the indicated concentration, approximately 1 μM substrate, and 50–100 nM protease. The kobs/I values were obtained from reactions initiated by addition of enzyme rather than substrate. RVP activity was measured in the fluorescence resonance energy transfer assay. The substrate was (N-terminal) DABCYL-(Gly-Arg-Ala-Val-Phe-Gln-Gly-Pro-Val-Gly)-EDANS. In the uncleaved peptide, the EDANS fluorescence was quenched by the proximal DABCYL group. When the peptide was cleaved, the quenching was relieved, and activity was measured as an increase in fluorescence signal. In the Table, unless otherwise indicated, all data are for rhinovirus 3C protease from HRV serotype-14 (produced from the infectious cDNA clone constructed by Dr. Robert Rueckert, Institute for Molecular Virology, University of Wisconsin, Madison, Wis.). The data in the column designated kobs/[I] were measured from progress curves in enzyme start experiments.

[5] = Cytotoxicity in mock-infected H1-HeLa cells (XTT); format: cell-based; details: human, two days, read-out: Toxicity CC50
Method: as §1, §2, §3

HRV-1A = experiment: Antirhinoviral H1-HeLa cell culture assay (cell protection, XTT), HRV-1A; format: cell-based, human rhinovirus; details: Rhinovirus A, HRV1A, 48 h, H1-HeLa cells, two days
Method: as §1, §2, §3, §4

T3 sequence (Q82122 1511-1693): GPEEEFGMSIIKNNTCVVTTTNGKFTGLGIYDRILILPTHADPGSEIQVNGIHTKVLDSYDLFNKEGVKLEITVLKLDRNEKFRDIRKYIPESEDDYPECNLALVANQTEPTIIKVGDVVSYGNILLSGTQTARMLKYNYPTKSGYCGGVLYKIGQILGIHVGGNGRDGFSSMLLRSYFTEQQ
T1 sequence (P03303 1538-1719): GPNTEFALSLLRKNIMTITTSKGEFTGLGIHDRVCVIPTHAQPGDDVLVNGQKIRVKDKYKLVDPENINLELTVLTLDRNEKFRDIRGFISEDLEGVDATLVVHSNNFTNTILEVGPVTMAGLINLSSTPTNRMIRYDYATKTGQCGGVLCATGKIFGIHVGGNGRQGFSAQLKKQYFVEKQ
T4 sequence (P04936 1508-1690): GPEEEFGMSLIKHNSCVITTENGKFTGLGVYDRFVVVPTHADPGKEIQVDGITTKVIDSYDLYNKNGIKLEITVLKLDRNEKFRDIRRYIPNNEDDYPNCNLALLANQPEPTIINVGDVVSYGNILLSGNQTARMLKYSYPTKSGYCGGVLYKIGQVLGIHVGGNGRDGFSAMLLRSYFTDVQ
T2 sequence (P07210 1522-1704): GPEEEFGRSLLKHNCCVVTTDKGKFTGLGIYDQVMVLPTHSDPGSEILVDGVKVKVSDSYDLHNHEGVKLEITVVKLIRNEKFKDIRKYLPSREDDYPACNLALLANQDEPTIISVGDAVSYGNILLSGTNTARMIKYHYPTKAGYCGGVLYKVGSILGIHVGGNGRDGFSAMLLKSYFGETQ

For `CCOC(=O)/C=C/[C@H](C[C@@H]1CCNC1=O)NC(=O)C1=Cc2cc(Cl)ccc2OC1` [Compound 44, 4S-[(6-Chloro-2H-chromene-3-carbonyl)-amino]-5-(2-oxo-pyrrolidin-3S-yl)-pent-2-enoic acid ethyl ester], the EC50 (HRV-10) was 459 nM, the kinact/KI [1] was 19700 M⁻¹ s⁻¹ and the kinact/KI [2] was 800 M⁻¹ s⁻¹. It also gave a kinact/KI [3] of 2200 M⁻¹ s⁻¹, an EC50 (HRV-2) of 645 nM and an EC50 (HRV-14) of 160 nM. It also gave a kinact/KI [4] of 385 M⁻¹ s⁻¹, a CC50 at 2 days [5] greater than 100000 nM and an EC50 (HRV-1A) of 5100 nM.
